The values that follow come from ChEMBL document CHEMBL1157318, “Caryophyllene sesquiterpenoids from a fungicolous isolate of Pestalotiopsis disseminata” (2006).

The subject of one experiment is Bacillus subtilis. Nature of the experiment: Antimicrobial activity against Bacillus subtilis ATCC 6051 at 100 ug/disk by agar disk diffusion method. In kind it is functional. To be noted: for zone of inhibition at 100 µg/disc: read-out: IZ. (In agar diffusion tests the substance spreads into inoculated agar from a disc or well.)
The test system of a further experiment is Staphylococcus aureus. Description: Antimicrobial activity against Staphylococcus aureus ATCC 29213 at 100 ug/disk by agar disk diffusion method. In kind it is functional. To be noted: for zone of inhibition at 100 µg/disc: read-out: IZ.
A further experiment deals with Escherichia coli. Nature of the experiment: Antimicrobial activity against sEscherichia coli ATCC 25922 at 100 ug/disk by agar disk diffusion method. In kind it is functional, organism-based.
In a further experiment the test system is Candida albicans. Nature of the experiment: Antimicrobial activity against Candida albicans ATCC 14053 at 100 ug/disk by agar disk diffusion method. In kind it is functional, organism-based.
Another experiment concerns Aspergillus flavus. Description: Antimicrobial activity against sAspergillus flavus NRRL 6541 at 200 ug/disk by agar disk diffusion method. In kind it is functional, organism-based.
A further experiment deals with Fusarium verticillioides. Nature of the experiment: Antimicrobial activity against Fusarium verticillioides NRRL 25457 at 200 ug/disk by agar disk diffusion method. In kind it is functional, organism-based.

Active and inactive are the calls of the source. The calls are words filed in the database; no cut-off is given here.

Turning to `CC1(C)C[C@H]2[C@@]1(O)[C@@H](O)C[C@]1(C)C=C[C@@H](O)[C@]21CO`, the zone of inhibition at 100 µg/disc with Bacillus subtilis was 12 mm; in the experiment with Staphylococcus aureus, 8 mm. Further, the outcome in the experiment on Escherichia coli, with Candida albicans, in the experiment with Aspergillus flavus and with Fusarium verticillioides was inactive.
As to `CC1(C)C[C@H]2[C@@]1(O)[C@@H](O)C[C@]1(C)[C@H](O)C=C[C@]21CO`, the outcome in the experiment on Bacillus subtilis, in the experiment on Staphylococcus aureus, in the experiment with Escherichia coli, in the experiment on Candida albicans, in the experiment with Aspergillus flavus and in the experiment with Fusarium verticillioides was inactive.
In the case of `CC1(C)C[C@@H]2/C(CO)=C\C=C/[C@@](C)(O)C[C@H](O)[C@]21O` [6-HYDROXYPUNCTAPORONIN B], the zone of inhibition at 100 µg/disc with Bacillus subtilis came to 12 mm; in the experiment with Staphylococcus aureus, 8 mm. Moreover, the result in the experiment on Escherichia coli, in the experiment on Candida albicans, in the experiment with Aspergillus flavus and with Fusarium verticillioides was inactive.
